Source: ChEMBL document CHEMBL5728270, “Immunomodulator compounds” (2021)

Test: Enzyme-Linked Immunosorbent Assay ELISA: 96 Well plates were coated with […] of human PD-L1 (obtained from R&D) in PBS overnight at 4° C. The wells were then blocked with 2% BSA in PBS (W/V) with 0.05% TWEEN-20 for 1 hour at 37° C. The plates were washed 3 times with PBS/0.05% TWEEN-20 and the compounds were serial diluted (1:5) in dilution medium and added to the ELISA plates. Human PD-1 and biotin 0.3 μg/mL (ACRO Biosystems) were added and incubated for 1 hour at 37° C. then washed 3 times with PBS/0.05% TWEEN-20. A second block was performed with 2% BSA in PBS (W/V)/0.05% TWEEN-20 for 10 min at 37° C. and was washed 3 times with PBS/0.05% TWEEN-20. Streptavidin-HRP was added for 1 hour at 37° C. then washed 3 times with PBS/0.05% TWEEN-20. TMB substrate was added and reacted for 20 min at 37° C. A stop solution (2 N aqueous H2SO4) was added. The absorbance was read at 450 nm using a micro-plate spectrophotometer.

IC50 [nM] | SMILES
< 5 | Cc1c(OCCCN2CCC(O)CC2)cccc1-c1cccc2c1CC[C@@H]2Oc1cc(OCc2cc(C#N)cc(C#N)c2)c(CN[C@@](C)(CO)C(=O)O)cc1Cl
< 5 | C[C@@](CO)(NCc1cc(Cl)c(O[C@H]2CCc3c(-c4cccc(OCCCN5CCC(O)CC5)c4Cl)cccc32)cc1OCc1cncc(C#N)c1)C(=O)O
< 5 | Cc1c(OCCCN2CCC(O)CC2)cccc1-c1cccc2c1CC[C@@H]2Oc1cc(OCc2cncc(C#N)c2)c(CN[C@H](C(=O)O)[C@@H](C)O)cc1Cl
< 5 | N#Cc1cncc(COc2cc(O[C@H]3CCc4c(-c5cccc(OCCCN6CCC(F)CC6)c5Cl)cccc43)c(Cl)cc2CN[C@H]2CCOC[C@@H]2O)c1
